Read-outs that look alike come from different tables or passages of the source.
What was measured:
[1] = tested on: Key Grass and Sedge Weeds as well as Grass Crops; assay: Post-Emergent Test II (Table 6); format: in vivo; details: post-emergence, 336 h, 14 days after application; for pest or weed control at 70 g/ha: 70 g ai/ha; for pest or weed control at 140 g/ha: 140 g ai/ha
Method in brief: (§1)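 Seedlings are raised 7-21 days in Metro-Mix 360 (pH 6.0-6.8) under greenhouse conditions, then sprayed at the first or second true leaf stage. Application is 187 L/ha, with serial rates down to 1/16× of the highest. Plants are subirrigated, and percent injury is rated visually after 14 days.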

[2] = tested on: Key Broadleaf Weed and Crop Species; assay: Post-Emergent Test II (Table 5); format: in vivo; details: post-emergence, 336 h; for pest or weed control at 70 g/ha: application rate 70 (kg ai/ha; footnote: g ai/ha); for pest or weed control at 140 g/ha: application rate 140 (kg ai/ha; footnote: g ai/ha)
Method in brief: as §1

[3] = CYPSS, read-out: Visual Growth Reduction (%) 14 Days After Application CYPSS
[4] = DIGSA: crabgrass (Digitaria sanguinalis), read-out: Visual Growth Reduction (%) 14 Days After Application DIGSA
[5] = ECHSS, read-out: Visual Growth Reduction (%) 14 Days After Application ECHSS
[6] = ORYSS (crop), read-out: Visual Growth Reduction (%) 14 Days After Application ORYSS
[7] = SORVU: grain sorghum (Sorghum vulgare), read-out: Visual Growth Reduction (%) 14 Days After Application SORVU
[8] = TRZSS (crop), read-out: Visual Growth Reduction (%) 14 Days After Application TRZSS
[9] = ZEAMX: maize, corn (Zea mays), read-out: Visual Growth Reduction (%) 14 Days After Application ZEAMX
[10] = Abutilon theophrasti, ABUTH: velvetleaf (Abutilon theophrasti), read-out: Visual Growth Reduction (%) 14 Days After Application ABUTH
[11] = Amaranthus retroflexus, AMARE: redroot pigweed (Amaranthus retroflexus), read-out: Visual Growth Reduction (%) 14 Days After Application AMARE
[12] = Brassica napus, BRSSS: oilseed rape, canola (Brassica napus), read-out: Visual Growth Reduction (%) 14 Days After Application BRSSS
[13] = Chenopodium album, CHEAL: lambsquarters (Chenopodium album), read-out: Visual Growth Reduction (%) 14 Days After Application CHEAL
[14] = Euphorbia heterophylla, EPHHL: wild poinsettia (Euphorbia heterophylla), read-out: Visual Growth Reduction (%) 14 Days After Application EPHHL
[15] = Helianthus annuus, HELAN: sunflower (Helianthus annuus), read-out: Visual Growth Reduction (%) 14 Days After Application HELAN
[16] = Viola tricolor, VIOTR: wild pansy (Viola tricolor), read-out: Visual Growth Reduction (%) 14 Days After Application VIOTR
[17] = SETFA: giant foxtail (Setaria faberi), read-out: Visual Growth Reduction (%) 14 Days After Application SETFA

| SMILES | pest or weed control at 70 g/ha [1, 3] [%] | pest or weed control at 140 g/ha [1, 3] [%] | pest or weed control at 70 g/ha [1, 4] [%] | pest or weed control at 140 g/ha [1, 4] [%] | pest or weed control at 70 g/ha [1, 6] [%] | pest or weed control at 140 g/ha [1, 6] [%] | pest or weed control at 70 g/ha [1, 7] [%] | pest or weed control at 140 g/ha [1, 7] [%] | pest or weed control at 70 g/ha [1, 8] [%] | pest or weed control at 140 g/ha [1, 8] [%] | pest or weed control at 70 g/ha [1, 9] [%] | pest or weed control at 140 g/ha [1, 9] [%] | pest or weed control at 70 g/ha [2, 10] [%] | pest or weed control at 140 g/ha [2, 10] [%] | pest or weed control at 70 g/ha [2, 11] [%] | pest or weed control at 140 g/ha [2, 11] [%] | pest or weed control at 70 g/ha [2, 12] [%] | pest or weed control at 140 g/ha [2, 12] [%] | pest or weed control at 70 g/ha [2, 13] [%] | pest or weed control at 140 g/ha [2, 13] [%] | other results |
| --- | --- | --- | --- | --- | --- | --- | --- | --- | --- | --- | --- | --- | --- | --- | --- | --- | --- | --- | --- | --- | --- |
| COC(=O)c1nc(-c2ccc(Cl)c(F)c2C)nc(N)c1Cl [Compound 31] | 0 to 29 | 0 to 29 | 0 to 29 | 0 to 29 | 0 to 29 | 0 to 29 | 0 to 29 | 0 to 29 | 0 to 29 | 0 to 29 | 0 to 29 | 0 to 29 | 85 to 94 | 85 to 94 | 95 to 100 | 95 to 100 | 30 to 44 | 45 to 59 | 95 to 100 | 95 to 100 | pest or weed control at 70 g/ha [1, 5]: 0 to 29%; pest or weed control at 140 g/ha [1, 5]: 0 to 29%; pest or weed control at 70 g/ha [2, 14]: 0 to 29%; pest or weed control at 140 g/ha [2, 14]: 0 to 29%; pest or weed control at 70 g/ha [2, 15]: 85 to 94%; pest or weed control at 140 g/ha [2, 15]: 85 to 94%; pest or weed control at 70 g/ha [2, 16]: 0 to 29%; pest or weed control at 140 g/ha [2, 16]: 0 to 29% |
| C=Cc1c(-c2cc(N)c(Cl)c(C(=O)O)n2)ccc(Cl)c1F [Compound 89, 4-Amino-3-chloro-6-(4-chloro-3-fluoro-2-vinylphenyl)picolinic acid] | 0 to 29 | 0 to 29 | 30 to 44 | 75 to 84 | 0 to 29 | 0 to 29 | 0 to 29 | 0 to 29 | 0 to 29 | 0 to 29 | 0 to 29 | 0 to 29 | 85 to 94 | 95 to 100 | 95 to 100 | 95 to 100 | 95 to 100 | 95 to 100 | 95 to 100 | 95 to 100 | pest or weed control at 70 g/ha [1, 5]: 75 to 84%; pest or weed control at 140 g/ha [1, 5]: 85 to 94%; pest or weed control at 70 g/ha [1, 17]: 0 to 29%; pest or weed control at 140 g/ha [1, 17]: 0 to 29%; pest or weed control at 70 g/ha [2, 14]: 30 to 44%; pest or weed control at 140 g/ha [2, 14]: 45 to 59%; pest or weed control at 70 g/ha [2, 15]: 95 to 100%; pest or weed control at 140 g/ha [2, 15]: 95 to 100%; pest or weed control at 70 g/ha [2, 16]: 45 to 59%; pest or weed control at 140 g/ha [2, 16]: 60 to 74% |
| COC(=O)c1nc(-c2ccc(C(F)(F)F)nc2)cc(N)c1Cl [Compound 4] | 60 to 74 | 60 to 74 | 0 to 29 | 0 to 29 | 0 to 29 | 0 to 29 | 45 to 59 | 60 to 74 | 0 to 29 | 0 to 29 | 0 to 29 | 0 to 29 | 75 to 84 | 75 to 84 | 85 to 94 | 95 to 100 | 30 to 44 | 60 to 74 | 75 to 84 | 85 to 94 | pest or weed control at 70 g/ha [1, 5]: 30 to 44%; pest or weed control at 140 g/ha [1, 5]: 75 to 84%; pest or weed control at 70 g/ha [1, 17]: 0 to 29%; pest or weed control at 140 g/ha [1, 17]: 0 to 29%; pest or weed control at 70 g/ha [2, 14]: 75 to 84%; pest or weed control at 140 g/ha [2, 14]: 85 to 94%; pest or weed control at 70 g/ha [2, 15]: 60 to 74%; pest or weed control at 140 g/ha [2, 15]: 75 to 84%; pest or weed control at 70 g/ha [2, 16]: 0 to 29%; pest or weed control at 140 g/ha [2, 16]: 0 to 29% |
| COC(=O)c1nc(-c2ccc(C(F)(F)F)nc2OC)cc(N)c1Cl [Compound 37] | 0 to 29 | 0 to 29 | 0 to 29 | 0 to 29 | 0 to 29 | 0 to 29 | 0 to 29 | 0 to 29 | 0 to 29 | 0 to 29 | 0 to 29 | 0 to 29 | 75 to 84 | 75 to 84 | 60 to 74 | 75 to 84 | 0 to 29 | 30 to 44 | 85 to 94 | 85 to 94 | pest or weed control at 70 g/ha [1, 17]: 0 to 29%; pest or weed control at 140 g/ha [1, 17]: 0 to 29%; pest or weed control at 70 g/ha [2, 14]: 0 to 29%; pest or weed control at 140 g/ha [2, 14]: 0 to 29%; pest or weed control at 70 g/ha [2, 15]: 0 to 29%; pest or weed control at 140 g/ha [2, 15]: 60 to 74%; pest or weed control at 70 g/ha [2, 16]: 0 to 29%; pest or weed control at 140 g/ha [2, 16]: 0 to 29% |
